Measured values published in US11981677B2, “Further substituted triazolo quinoxaline derivatives” (Grünenthal GmbH, priority 2018, dated 2024).

Target: T1, Glucocorticoid Receptor (Homo sapiens, UniProt P04150)
T1 construct: expressed in transfected cells
T1 sequence (P04150 524-758 limits assumed): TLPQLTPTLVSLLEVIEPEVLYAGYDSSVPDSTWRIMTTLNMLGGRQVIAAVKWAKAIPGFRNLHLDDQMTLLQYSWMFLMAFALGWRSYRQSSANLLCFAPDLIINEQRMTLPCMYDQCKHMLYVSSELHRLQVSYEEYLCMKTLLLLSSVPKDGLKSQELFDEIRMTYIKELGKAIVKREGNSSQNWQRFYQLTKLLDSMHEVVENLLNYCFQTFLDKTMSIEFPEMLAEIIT
Assay: Agonistic mode of action on the glucocorticoid receptor (CHO-Gal4/GR luciferase reporter cell line)
Assay type: cell-based
Details: CHO-Gal4/GR luciferase reporter cells; observed in the agonistic assay or the antagonistic assay (mode not given); read-out: IC50 or EC50 range
Description: Potential selective glucocorticoid receptor modulators of this intervention can be tested for modulation of the activity of the glucocorticoid receptor using cell-based assays. These assays involve a Chinese hamster ovary (CHO) cell line which contains fragments of the glucocorticoid receptor as well as fusion proteins. The glucocorticoid receptor fragments used are capable of binding the ligand (e.g. beclomethasone) to identify molecules that compete for binding with glucocorticoid receptor ligands. In more detail, the glucocorticoid receptor ligand binding domain is fused to the DNA binding domain (DBD) of the transcriptionfactor GAL4 (GAL4 DBD-GR) and is stably integrated into a CHO cell line containing a GAL4-UAS-Luciferase reporter construct. […] After cell lysis the luminescence that is produced by luciferase after addition of the substrate is detected and EC50 or IC50 values can be calculated. Engagement of molecules which induce gene expression via glucocortocoid receptor binding to the DNA leads to expression of the luciferase gene under the control of the fusion protein GAL4 DBD-GR and therefore to a dose-dependent increase of the luminescence signal. Binding of molecules which repress beclomethasone-induced gene expression of the luciferase gene under the control of the fusion protein GAL4 DBD-GR leads to a dose-dependent reduction of the luminescence signal.
The reporter cell line CHO-Gal4/GR consisted of a chinese hamster ovary (CHO) cell line (Leibniz Institute DSMZ—German Collection of Microorganisms and Cell Cultures GmbH: ACC-110) containing a firefly luciferase gene under the control of the GR ligand binding domain fused to the DNA binding domain (DBD) of GAL4 (GAL4 DBD-GR) stably integrated into CHO cells. This cell line was established by stable transfection of CHO cells with a GAL4-UAS-Luciferase reporter construct. In a subsequent step the ligand binding domain of the GR cloned into pIRES2-EGFP-GAL4 containing the DNA binding domain of GAL4 from pFA-AT2 was transfected. This fusion construct activated firefly luciferase expression under the control of a multimerized GAL4 upstream activation sequence (UAS). The signal of the emitted luminescence was recorded by the FLIPR^TETRA. This allowed for specific detection of ligand-induced activation of the GR and therefore for the identification of compounds with agonistic properties. The GAL4/UAS reporter was premixed with a vector that constitutively expressed Renilla luciferase, which served as an internal positive control for transfection efficiency.
The complete culture medium for the assay was: • DMEM F-12 (1:1) MIXTURE (LONZA cat. No: BE04-687F/U1) 500 mL • 5 mL of 100 mM Sodium Pyruvate (LONZA cat. No: BE12-115E) • 25 mL of 7.5% Sodium Bicarbonate (LONZA cat. No BE17-613E) • 6.5 mL of 1 M Hepes (LONZA cat. No: BE17-737E) • 5 mL of 100× Penicillin/Streptomycin (LONZA cat. No DE17-602E) • 50 mL of Fetal Bovine Serum (Euroclone cat. No ECS 0180L) • 0.25 mL of 10 mg/mL Puromycin (InvivoGen cat.: ant-pr-1) • 0.5 mL of 100 mg/mL Zeocin (InvivoGen cat.: ant-zn-1)
Cryo-preserved CHO-Gal4/GR cells were suspended in complete medium and 5000 cells/25 μl/well were seeded into the wells of 384-well polystyrene assay plates (Thermo Scientific, cat. #4332) and cultured at 37° C., 5% CO2 and 95% humidity. After 24 hours growth medium was carefully removed and replaced by 30111 Opti-MEM (GIBCO, cat. #31985062) as assay buffer. To test the compounds an 8-point half-log compound dilution curve was generated in 100% DMSO starting from a 2 mM stock and compounds were then diluted 1:50 in Opti-MEM. 10111 of compounds were then added to the wells containing 30 μl Opti-MEM resulting in a final assay concentration range from 10 μM to 0.003 μM in 0.5% DMSO. Compounds were tested at 8 concentrations in quadruplicate data points. […] Finally, cells were lysed with 20 μl of Triton/Luciferin solution and the signal of the emitted luminescence was recorded at the FLIPR^TETRA for 2 minutes. […]

Row | SMILES | IC50 or EC50 (antagonist or agonist mode, not stated per compound)
1 | Cc1c(-c2cccc3c2ccn3CCN(C)C)cc(F)c2c1-n1c(C)nnc1C(C)(C)N2 [Example 375, [2-[4-(6-Fluoro-1,4,4,9-tetramethyl-5H-[1,2,4]triazolo[4,3-a]quinoxalin-8-yl)-1H-indol-1-yl]-ethyl]-dimethyl-amine] | 100 to 1000 nM
2 | COc1c(-c2cc(F)cc3c2ccn3CC(F)F)cc(F)c2c1-n1c(C)nnc1C(C)(C)N2 [Example 58, 8-(1-(2,2-difluoroethyl)-6-fluoro-1H-indol-4-yl)-6-fluoro-9-methoxy-1,4,4-trimethyl-4,5-dihydro-[1,2,4]triazolo[4,3-a]quinoxaline] | 100 to 1000 nM
3 | Cc1nnc2n1-c1c(c(F)c(F)c(-c3cc(F)cc4c3cnn4S(C)(=O)=O)c1C(F)(F)F)NC2(C)C [Example 519, 6,7-Difluoro-8-(6-fluoro-1-methylsulfonyl-1H-indazol-4-yl)-1,4,4-trimethyl-9-(trifluoromethyl)-5H-[1,2,4]triazolo[4,3-a]quinoxaline] | 100 to 1000 nM
4 | COc1cc(-c2c(C)c3c(c(F)c2F)NC(C)(C)c2nnc(C)n2-3)c2ccn(S(C)(=O)=O)c2c1 [Example 522, 6,7-Difluoro-8-(6-methoxy-1-methylsulfonyl-1H-indol-4-yl)-1,4,4,9-tetramethyl-5H-[1,2,4]triazolo[4,3-a]quinoxaline] | 100 to 1000 nM
5 | COc1c(-c2cc(F)cc3[nH]ncc23)cc(F)c2c1-n1c(C)nnc1C(C)(C)N2 [Example 495, 6-Fluoro-8-(6-fluoro-1H-indazol-4-yl)-9-methoxy-1,4,4-trimethyl-5H-[1,2,4]triazolo[4,3-a]quinoxaline] | 100 to 1000 nM
6 | Cc1nnc2n1-c1c(c(F)cc(-c3cccc4c3ccn4S(C)(=O)=O)c1C1CC1)NC2(C)C [Example 474, 9-Cyclopropyl-6-fluoro-1,4,4-trimethyl-8-(1-methylsulfonyl-1H-indol-4-yl)-5H-[1,2,4]triazolo[4,3-a]quinoxaline] | 100 to 1000 nM
7 | Cc1c(-c2cc(F)cc3[nH]ncc23)cc(F)c2c1-n1c(C)nnc1C(C)(C)N2 [Example 496, 6-Fluoro-8-(6-fluoro-1H-indazol-4-yl)-1,4,4,9-tetramethyl-5H-[1,2,4]triazolo[4,3-a]quinoxaline] | 100 to 1000 nM
8 | COc1c(-c2cccc3c2ccn3S(C)(=O)=O)c(F)c(F)c2c1-n1c(C)nnc1C(C)(C)N2 [Example 499, 6,7-Difluoro-9-methoxy-1,4,4-trimethyl-8-(1-methylsulfonyl-1H-indol-4-yl)-5H-[1,2,4]triazolo[4,3-a]quinoxaline] | 100 to 1000 nM
9 | Cc1c(-c2cccc3c2cnn3C)cc(F)c2c1-n1c(C)nnc1C(C)(C)N2 [Example 304, 6-Fluoro-1,4,4,9-tetramethyl-8-(1-methyl-1H-indazol-4-yl)-5H-[1,2,4]triazolo[4,3-a]quinoxaline] | 100 to 1000 nM
10 | Cc1c(-c2cc(F)cc3c(C)c[nH]c23)cc(Cl)c2c1-n1c(C)nnc1C(C)(C)N2 [Example 454, 6-Chloro-8-(5-fluoro-3-methyl-1H-indol-7-yl)-1,4,4,9-tetramethyl-5H-[1,2,4]triazolo[4,3-a]quinoxaline] | < 100 nM
11 | Cc1c(-c2cccc3c2ccn3CC(F)F)cc(F)c2c1-n1c(C)nnc1C(C)(C)N2 [Example 326, 8-[1-(2,2-Difluoro-ethyl)-1H-indol-4-yl]-6-fluoro-1,4,4,9-tetramethyl-5H-[1,2,4]triazolo[4,3-a]quinoxaline] | 100 to 1000 nM
12 | CCc1c(-c2cc(F)cc3c2ccn3CCO)cc(F)c2c1-n1c(C)nnc1C(C)(C)N2 [Example 464, 2-[4-(9-Ethyl-6-fluoro-1,4,4-trimethyl-5H-[1,2,4]triazolo[4,3-a]quinoxalin-8-yl)-6-fluoro-1H-indol-1-yl]-EtOH] | 100 to 1000 nM
13 | COc1c(-c2cc(F)cc3[nH]ccc23)cc(F)c2c1-n1c(C)nnc1C(C)(C)N2 [Example 470, 6-Fluoro-8-(6-fluoro-1H-indol-4-yl)-9-methoxy-1,4,4-trimethyl-5H-[1,2,4]triazolo[4,3-a]quinoxaline] | 100 to 1000 nM
14 | Cc1c(-c2cc(F)cc3c2ccn3CCO)cc(F)c2c1-n1c(C3CC3)nnc1C(C)(C)N2 [Example 65, 2-[4-(1-Cyclopropyl-6-fluoro-4,4,9-trimethyl-5H-[1,2,4]triazolo[4,3-a]quinoxalin-8-yl)-6-fluoro-1H-indol-1-yl]-EtOH] | 1000 to 15000 nM
15 | Cc1c(-c2cc(F)cc3c2ccn3S(C)(=O)=O)c(F)c(F)c2c1-n1c(C)nnc1C(C)(C)N2 [Example 447, 6,7-Difluoro-8-(6-fluoro-1-methylsulfonyl-1H-indol-4-yl)-1,4,4,9-tetramethyl-5H-[1,2,4]triazolo[4,3-a]quinoxaline] | < 100 nM
16 | COc1c(-c2cc(F)cc3c(C)c[nH]c23)cc(F)c2c1-n1c(C3CC3)nnc1C(C)(C)N2 [Example 62, 1-Cyclopropyl-6-fluoro-8-(5-fluoro-3-methyl-1H-indol-7-yl)-9-methoxy-4,4-dimethyl-5H-[1,2,4]triazolo[4,3-a]quinoxaline] | 100 to 1000 nM
17 | Cc1c(-c2cccc3c2ccn3S(C)(=O)=O)cc(F)c2c1-n1c(C3CC3)nnc1C(C)(C)N2 [Example 64, 1-Cyclopropyl-6-fluoro-4,4,9-trimethyl-8-(1-methylsulfonyl-1H-indol-4-yl)-5H-[1,2,4]triazolo[4,3-a]quinoxaline] | 1000 to 15000 nM
18 | COc1c(-c2cccc3c2ccn3C)cc(F)c2c1-n1c(C)nnc1C(C)(C)N2 [Example 485, 6-Fluoro-9-methoxy-1,4,4-trimethyl-8-(1-methyl-1H-indol-4-yl)-5H-[1,2,4]triazolo[4,3-a]quinoxaline] | 100 to 1000 nM
19 | Cc1c(-c2cc(F)cc3c2ccn3CCO)c(F)c(F)c2c1-n1c(C)nnc1C(C)(C)N2 [Example 449, 2-[4-(6,7-Difluoro-1,4,4,9-tetramethyl-5H-[1,2,4]triazolo[4,3-a]quinoxalin-8-yl)-6-fluoro-1H-indol-1-yl]-EtOH] | 100 to 1000 nM
20 | CCS(=O)(=O)n1ccc2c(-c3c(C)c4c(c(F)c3F)NC(C)(C)c3nnc(C)n3-4)cc(F)cc21 [Example 446, 8-(1-(ethylsulfonyl)-6-fluoro-1H-indol-4-yl)-6,7-difluoro-1,4,4,9-tetramethyl-4,5-dihydro-[1,2,4]triazolo[4,3-a]quinoxaline] | < 100 nM
21 | Cc1c(-c2cc(F)cc3c(C)c[nH]c23)c(F)c(Cl)c2c1-n1c(C)nnc1C(C)(C)N2 [Example 508, 6-Chloro-7-fluoro-8-(5-fluoro-3-methyl-1H-indol-7-yl)-1,4,4,9-tetramethyl-5H-[1,2,4]triazolo[4,3-a]quinoxaline] | 100 to 1000 nM
